Measurements from patent US20260209777A1, “TARGETING GLYCOSYLPHOSPHATIDYLINOSITOL (GPI) PATHWAY PROTEINS TO TREAT OVARIAN CANCER” (UNIVERSITY OF MASSACHUSETTS, priority 2023, published 2026).

Columns and labels:
Assay type in all cases: cell-based, human
[1] = system: CD24 cell surface expression in OVCAR8 cells; assay: CD24 flow cytometry analysis in OVCAR8 cells; conditions: OVCAR8; 3 days; bestatin 10 or 20 μM, tosedostat 5 or 10 μM, ARM1 1 or 2 μM; vs DMSO
Procedure: (§1) Flow Cytometry Analysis: For cell surface protein staining, 1×10^5-1×10^6 cells were first incubated with Fc receptor blocking solution, Human TruStain FcXTM (BioLegend, Cat #422301) for 10 minutes at room temperature. Cells were washed once in FACS buffer (1×PBS, 1.0% bovine serum albumin (BSA) (Sigma) and 0.2% sodium azide (Sigma), and then incubated with antibodies (given below) for 30 minutes at 4° C. in the dark. Cells were also stained with 7-AAD (Biolegend, Cat #420404) for dead cell exclusion, and flow cytometry analysis was performed using a Bio-Rad ZE5 Cell Analyzer. Following antibodies used in this study (all antibodies were used at 1:50 dilution unless otherwise noted): APC anti-human CD24 (BioLegend, Cat #311118, clone ML5), PE anti-human CD24 (eBioscience, Cat #12-0247-42, clone SN3), APC anti-human CD47 (BioLegend, Cat #323124, clone CC2C6), APC anti-human § 2-microglobulin (BioLegend, Cat #395711, clone […]), PE anti-human HLA-A2 (MHC-class I) (BioLegend, Cat #343305, clone BB7.2), APC anti-human CD11b (BioLegend, Cat #982604, clone ICRF44), APC anti-mouse F4/80 antibody (BioLegend, Cat #123116, clone BM8), APC-streptavidin (Thermo Fisher Scientific, Cat #SA1005, 1:100 dilution), PE anti-Calreticulin (Invitrogen, Catalog #MA5-15382, 1:200 dilution). For intracellular staining, cells were fixed with 1% paraformaldehyde for 5 min and permeabilized using the True-Nuclear Transcription Factor Buffer Set (BioLegend, Cat #424401) before the addition of the antibody. Small Molecule Inhibitor and Drug Treatments: OVCAR8 or SKOV3 cells were treated for 3 days with bestatin (Ubenimex) (SelleckChem, Cat #S1591) at 5, 10 or 20 μM (as indicated in the figure legends), Tosedostat (Medchem Express, Cat #HY-14807) at 5 μM or 10 μM (as indicated in the figure legends) or ARM-1 (Medchem Express, Cat #HY-W027340) at 1, or 2 μM (as indicated in the figure legends). Inhibitors were replenished every 24 hours. DMSO (Sigma Aldrich, Cat #D8418) was used as a vehicle. OVCAR8 cells were treated with Docetaxel (SelleckChem, Cat #S1148) at 100 nM or Carboplatin (SelleckChem, Cat #S1215 at 100 nM or Doxorubicin (SelleckChem, Cat #E2516) at 50 nM for 12 hours.

OVCAR8 cells = assay: In vitro phagocytosis assay of OVCAR8 cells by PBMC-derived M2 macrophages; conditions: OVCAR8; bestatin 20 μM, tosedostat 20 μM, ARM1 2 μM; vs DMSO
Excerpt: Macrophage Generation and Stimulation: Primary human donor-derived macrophages were generated as described previously (Martinez, Curr Protocol Immunol 2012, Chapter 14:14.28.1-14.28.23). In brief, Leukopaks from anonymous donors were obtained from the Rhode Island Blood (Providence, RI) and peripheral blood […] (PBMCs) were isolated by density gradients centrifugation using Ficoll Paque Plus (Sigma-Aldrich, Cat #17-1440-02) followed by RBC lysis using RBC lysis buffer (eBioscience, Cat #00-4333-57). For monocyte isolation, PBMCs were incubated in Monocyte Attachment Medium (Sigma-Aldrich, Cat #C-28051) for 1 hour at 37° C. and 5% CO2 and then washed three times in Iscove's Modified Dulbecco's Medium (IMDM) (Gibco, Cat #12440053) to remove non-adherent cells. The remaining monocytes were detached and seeded in 96-well plates and cultured at 37° C. and 5% CO2 in IMDM supplemented with 10% FBS (Atlanta Biologicals, Cat #S11550) and 20 ng/ml recombinant human M-CSF (Peprotech, Cat #AF-300-25). After 4 days monocytes were then treated with 20 ng/ml recombinant human IL-4 (Peprotech, Cat #200-04) and 10 ng/mL recombinant human IL-10 (PeproTech, Cat #200-10) for another 3-4 days to obtain M2 polarized macrophages. Macrophage differentiation was confirmed morphologically using microscopy. M2-macrophage polarization was confirmed by immunophenotyping of the M2 marker CD206 using PE-conjugated anti-human anti-CD206 antibody (BioLegend, Cat #321106, clone 15-2, 1:100 dilution). In vitro Phagocytosis Assays: To facilitate the quantification of phagocytic events, we adapted a microscopy-based fluorescence phagocytosis […] al., J Immunol Methods 2009, 342(1-2):71-7; Lindner et al., Biotechniques 2020, 68(5):245-250) for use with a Celigo imaging cytometer. […] Cells were incubated with pHrodo Red, SE (Invitrogen, Cat #P36600) on ice for 30 min and then co-cultured with PBMC-derived M2 macrophages (prepared as described above) at a ratio of 1:2 (OVCAR8/B cells: macrophages) for 2 hours in a humidified 5% CO2 incubator at 37° C. Phagocytic events were quantified by counting the number of red fluorescent (pHrodo+) cells per well using a Celigo Imaging Cytometer (Nexcelom). EmGFP was used for the visualization of cancer cells in imaging Phagocytic events were also quantified using a previously-described flow cytometry-based assay (Barkal et al., Nature 2019, 572(7769):392-396; […] et al., Biomedicines 2022, 10(5):1175). In brief, M2 macrophages co-cultured with OVCAR8/EmGFP-luc cells were detached using TrypLE Express (GibcoTM, cat #12604013), stained with APC anti-human CD11b clone ICRF44 (BioLegend, Cat #982604) and analyzed by flow cytometry (BioRad ZE5). Double-positive EmGFP+CD11b+ cells were considered phagocytic events.

[2] = system: CALR cell surface expression in OVCAR8 cells; assay: Flow cytometry analysis of Calreticulin (CALR) in OVCAR8 cells; conditions: OVCAR8, 12 hours; docetaxel 100 nM, carboplatin 100 nM, doxorubicin 50 nM; vs DMSO (FIG. 11A)
Procedure: as §1, with “OVCAR8 cells were treated with Docetaxel (SelleckChem, Cat #S1148) at 100 nM or Carboplatin (SelleckChem, Cat #S1215 at 100 nM or Doxorubicin (SelleckChem, Cat #E2516) at 50 nM for 12 hours.” left out

Structure (SMILES) | CD24 cell surface expression (MFI) [1] | macrophage-mediated phagocytosis (OVCAR8 cells) | CALR cell surface expression [2]
Nc1nc(-c2ccc(Cc3ccccc3)cc2)cs1 [ARM1] | decreased | increased | –
CC(=O)O[C@@]12CO[C@@H]1C[C@H](O)[C@@]1(C)C(=O)[C@H](O)C3=C(C)[C@@H](OC(=O)[C@H](O)[C@@H](NC(=O)OC(C)(C)C)c4ccccc4)C[C@@](O)([C@@H](OC(=O)c4ccccc4)[C@H]21)C3(C)C [docetaxel] | – | – | induced robust
N.N.O=C([O-])C1(C(=O)[O-])CCC1.[Pt+2] [carboplatin] | – | – | did not
COc1cccc2c1C(=O)c1c(O)c3c(c(O)c1C2=O)C[C@@](O)(C(=O)CO)C[C@@H]3O[C@H]1C[C@H](N)[C@H](O)[C@H](C)O1 [doxorubicin] | – | – | did not
